Columns and labels:
B16-F10 cells = assay: Melanin assay test in B16-F10 cells; format: cell-based, murine; settings: for IC50: Mus musculus, B16-F10, 0.1 μM α-MSH stimulated, 72 hours treatment, read-out: Results activity B16-F10 IC50 (50% melanin synthesis inhibition); for Results activity B16-F10, percentage of activity on melanin synthesis: negative value indicates an inhibition
Procedure: This involves a test of measuring the synthesis of melanin by colorimetric assay on a murine melanoma cell line: the B16-F10 line. This test enables the depigmenting power of active ingredients to be evaluated.
The B16-F10 cells are cultured in 96-well plates in DMEM medium, supplemented with FCS (foetal calf serum), and incubated 24 hours at 37° C., 5% CO2. The cells are then stimulated with 0.1 μM α-MSH (to stimulate the synthesis of melanin, the stimulation observed is around 150%) and treated 72 hours with the active ingredients to be tested. Each concentration of active ingredient is tested at least in triplicate. The total melanin followed by the intracellular melanin dissolved in the lysis buffer are then assayed by absorbance reading at 405 nm. The total proteins are assayed in the lysate and the results are expressed in mg melanin/mg proteins. The percentage of activity is calculated as follows:
[formula] A negative value indicates an inhibition, whereas a positive value indicates an induction of the synthesis of melanin. General Experimental Conditions: • Equipment: • CO2 cell incubator (Heraeus), Oven, Centrifuge (Heraeus), Laminar air flow fume hood, 96-well clear bottomed plates—Falcon, sterile cones—Treff Lab, Polylabo, Mithras LB940 (Berthold Technologies)-154/MIPA/003 Biological Equipment: • B16-F10 cell line between P10 and P20 (murine melanocytes) (ATCC, CRL-6475) • Reagents • DMEM without phenol red (GIBCOBRL, 31053-028), 200 mM Glutamax-I Supplement (GIBCOBRL, 35050-038), D-PBS (GIBCOBRL, 14190-094), Foetal calf serum (Invitrogen, 10270-098), Trypsine-EDTA (GIBCOBRL, 25300-054), NaOH (Sigma, S8045-500G), DMSO (Sigma, 471267-1L), Nle, Phe—Melanocyte Stimulating Hormone (Sigma, M-8764), Melanin (Sigma, M-0418), BCA-COPPER (SIGMA, B9643 AND C2284), BSA (SIGMA, P0914) B) Test for the Study of the Antioxidant Capacity by Chemiluminescence (Photochem Analytik Jena) Principle: […]

[1] = Antioxidant capacity by chemiluminescence (Photochem Analytik Jena); format: biochemical; settings: superoxide anion trapping
Procedure: This test is used to determine the antioxidant capacity of molecules. It is a method that generates free radicals by a photochemical signal. The intensity of the oxidation is 1000 times greater than those obtained under normal conditions.
The detection is performed by chemiluminescence. It enables the evaluation of hydrosoluble and liposoluble antioxidant molecules or extracts.
The results are expressed respectively in equivalent quantity of vitamin C or Trolox (6-hydroxy-2,5,7,8-tetramethylchroman-2-carboxylic acid). The sensitivity is of the order of the nanomole.
The antioxidant activity studied in this test represents the capacity to specifically trap the superoxide anions by chemiluminescence.
The quantified results are expressed in equivalent Trolox (standard), i.e. in “μg of product for 1 μg of Trolox”. This signifies that a quantity x of sample is required to obtain an activity equivalent to the activity detected for 1 μg of standard. It is an anti-oxidant power relative to a reference, which can be determined independently of the tested concentration.
The superoxide radical: O2^o^− is generated by a photochemical reaction: L+hv(UV)+O2→L*O2→L^o^++O2^o^− • L*: luminol in the excited state L^o+: luminol radical Detection of the Signal:
Part of the superoxide anions is quenched by anti-oxidants. The remaining free radicals are quantified by chemiluminescence. L^o^++O2^o^−→N2+[…]→AP^2−+hv(luminescence) AP*^2−: aminophthalate in the excited state

[2] = reference products of the interpretation scale; cited from earlier work

SMILES | IC50 (B16-F10 cells) [µM] | μg of sample for 1 μg of Trolox [1] | also measured
O=C1CC(c2ccccc2)CC2=C1C(c1ccc(O)c(O)c1)C1=C(CC(c3ccccc3)CC1=O)O2 (stereo not drawn) [Example 4, 9-(3,4-dihydroxyphenyl)-3,6-diphenyl-3,4,5,6,7,9-hexahydro-1H-xanthene-1,8(2H)-dione] | 7 | 0.001 μg of sample for 1 μg of Trolox | 
COc1cc(C2C3=C(CC(C)(C)CC3=O)OC3=C2C(=O)CC(C)(C)C3)cc(Cl)c1O [Example 16, 9-(3-chloro-4-hydroxy-5-methoxyphenyl)-3,3,6,6-tetramethyl-3,4,5,6,7,9-hexahydro-1H-xanthene-1,8(2H)-dione] |  | 5.20 μg of sample for 1 μg of Trolox | Results activity B16-F10, percentage of activity on melanin synthesis (B16-F10 cells; 20 μM): −31% to 20 μM
COc1cc(C2C3=C(CC(c4ccc(OC)c(OC)c4)CC3=O)OC3=C2C(=O)CC(c2ccc(OC)c(OC)c2)C3)ccc1O (stereo not drawn) [Example 14, 3,6-bis(3,4-dimethoxyphenyl)-9-(4-hydroxy-3-methoxyphenyl)-3,4,5,6,7,9-hexahydro-1H-xanthene-1,8(2H)-dione] |  | 2.27 μg of sample for 1 μg of Trolox | 
O=C1O[C@H]([C@@H](O)CO)C(O)=C1O [Vitamin C] |  |  | Activity (scale for interpreting the results) [2]: Very good; μg sample for 1 μg of Trolox (scale for interpreting the results) [2]: 0.1 to 3.0 μg sample for 1 μg of Trolox
CC1(C)CC(=O)C2=C(C1)OC1=C(C(=O)CC(C)(C)C1)C2c1cc(C(C)(C)C)c(O)c(C(C)(C)C)c1 [Example 5, 9-(3,5-di-tert-butyl-4-hydroxyphenyl)-3,3,6,6-tetramethyl-3,4,5,6,7,9-hexahydro-1H-xanthene-1,8(2H)-dione] | 2 | 50 μg of sample for 1 μg of Trolox | 
CC1(C)CC(=O)C2=C(C1)OC1=C(C(=O)CC(C)(C)C1)C2c1ccc(O)cc1 [Example 9, 9-(4-hydroxyphenyl)-3,3,6,6-tetramethyl-3,4,5,6,7,9-hexahydro-1H-xanthene-1,8(2H)-dione] | 37 | 7.39 μg of sample for 1 μg of Trolox | 
Cc1cc(C(C)(C)C)c(O)c(C(C)(C)C)c1 [BHT] |  |  | Activity (scale for interpreting the results) [2]: Good; μg sample for 1 μg of Trolox (scale for interpreting the results) [2]: 3.01 to 50 μg sample for 1 μg of Trolox
COc1cc(C2C3=C(CC(c4ccccc4)CC3=O)OC3=C2C(=O)CC(c2ccccc2)C3)ccc1O (stereo not drawn) [Example 6, 9-(4-hydroxy-3-methoxyphenyl)-3,6-diphenyl-3,4,5,6,7,9-hexahydro-1H-xanthene-1,8(2H)-dione] | 6 | 2.46 μg of sample for 1 μg of Trolox | 
COc1cc(C2C3=C(CC(C)(C)CC3=O)OC3=C2C(=O)CC(C)(C)C3)cc(O)c1O [Example 19, 9-(3,4-dihydroxy-5-methoxyphenyl)-3,3,6,6-tetramethyl-3,4,5,6,7,9-hexahydro-1H-xanthene-1,8(2H)-dione] |  | 0.02 μg of sample for 1 μg of Trolox | Results activity B16-F10, percentage of activity on melanin synthesis (B16-F10 cells; 10 μM): −22% to 10 μM
CC(=O)Oc1ccc(C2C3=C(CC(c4ccccc4)CC3=O)OC3=C2C(=O)CC(c2ccccc2)C3)cc1OC(C)=O (stereo not drawn) [Example 26, 4-(1,8-dioxo-3.6-diphenyl-2,3,4,5,6,7,8,9-octahydro-1H-xanthen-9-yl)-1,2-phenylene diacetate] |  |  | Results activity B16-F10, percentage of activity on melanin synthesis (B16-F10 cells; 20 μM): −28% to 20 μM
COc1cc(C2C3=C(CC(C(C)C)CC3=O)OC3=C2C(=O)CC(C(C)C)C3)ccc1O (stereo not drawn) [Example 12, 9-(4-hydroxy-3-methoxyphenyl)-3,6-diisopropyl-3,4,5,6,7,9-hexahydro-1H-xanthene-1,8(2H)-dione] | 16 | 1.64 μg of sample for 1 μg of Trolox | 
CCOc1cc(C2C3=C(CC(C)(C)CC3=O)OC3=C2C(=O)CC(C)(C)C3)ccc1O [Example 15, 9-(3-ethoxy-4-hydroxyphenyl)-3,3,6,6-tetramethyl-3,4,5,6,7,9-hexahydro-1H-xanthene-1,8(2H)-dione] | 19 | 1.79 μg of sample for 1 μg of Trolox | 
CC(=O)Oc1ccc(C2C3=C(CC(C)(C)CC3=O)OC3=C2C(=O)CC(C)(C)C3)cc1OC(C)=O [Example 27, 4-(3,3,6,6-tetramethyl-1,8-dioxo-2,3,4,5,6,7,8,9-octahydro-1H-xanthen-9-yl)-1,2-phenylene diacetate] |  | 0.096 μg of sample for 1 μg of Trolox | 
COc1cc(C2C3=C(CCCC3=O)OC3=C2C(=O)CCC3)ccc1O [Example 11, 9-(4-hydroxy-3-methoxyphenyl)-3,4,5,6,7,9-hexahydro-1H-xanthene-1,8(2H)-dione] |  | 1.07 μg of sample for 1 μg of Trolox | 
COc1cc(C2C3=C(CC(C)(C)CC3=O)OC3=C2C(=O)CC(C)(C)C3)cc(OC)c1O [Example 3, 9-(4-hydroxy-3,5-dimethoxyphenyl)-3,3,6,6-tetramethyl-3,4,5,6,7,9-hexahydro-1H-xanthene-1,8(2H)-dione] | 45 | 0.72 μg of sample for 1 μg of Trolox | 
N[C@@H](CS)C(=O)O [Cysteine] |  |  | Activity (scale for interpreting the results) [2]: Medium; μg sample for 1 μg of Trolox (scale for interpreting the results) [2]: 50.1 to 1000 μg sample for 1 μg of Trolox
Cc1cc(C2C3=C(CC(C)(C)CC3=O)OC3=C2C(=O)CC(C)(C)C3)cc(C)c1O [Example 10, 9-(4-hydroxy-3,5-dimethylphenyl)-3,3,6,6-tetramethyl-3,4,5,6,7,9-hexahydro-1H-xanthene-1,8(2H)-dione] |  | 4.10 μg of sample for 1 μg of Trolox | 
COc1cc(C2C3=C(CC(C)(C)CC3=O)OC3=C2C(=O)CC(C)(C)C3)cc(I)c1O [Example 18, 9-(4-hydroxy-3-iodo-5-methoxyphenyl)-3,3,6,6-tetramethyl-3,4,5,6,7,9-hexahydro-1H-xanthene-1,8(2H)-dione] |  | 4.66 μg of sample for 1 μg of Trolox | 
CC1(C)CC(=O)C2=C(C1)OC1=C(C(=O)CC(C)(C)C1)C2c1ccc(O)c(O)c1 [Example 2, 9-(3,4-dihydroxyphenyl)-3,3,6,6-tetramethyl-3,4,5,6,7,9-hexahydro-1H-xanthene-1,8(2H)-dione] | 20 | 0.03 μg of sample for 1 μg of Trolox | 
COc1cc(C2C3=C(CC(C)(C)CC3=O)OC3=C2C(=O)CC(C)(C)C3)cc(Br)c1O [Example 17, 9-(3-bromo-4-hydroxy-5-methoxyphenyl)-3,3,6,6-tetramethyl-3,4,5,6,7,9-hexahydro-1H-xanthene-1,8(2H)-dione] |  | 5.18 μg of sample for 1 μg of Trolox | 
CCCCC/C=C\C/C=C\CCCCCCCC(=O)Oc1ccc(C2C3=C(CC(C)(C)CC3=O)OC3=C2C(=O)CC(C)(C)C3)cc1OC [Example 7, (9Z,12Z)-2-methoxy-4-(3,3,6,6-tetramethyl-1,8-dioxo-2,3,4,5,6,7,8,9-octahydro-1H-xanthen-9-yl)phenyl octadeca-9,12-dienoate] |  | 19.7 μg of sample for 1 μg of Trolox | 
COc1cc(C2C3=C(CC(C)(C)CC3=O)OC3=C2C(=O)CC(C)(C)C3)ccc1O [Example 1, 9-(4-hydroxy-3-methoxyphenyl)-3,3,6,6-tetramethyl-3,4,5,6,7,9-hexahydro-1H-xanthene-1,8(2H)-dione] | 50 | 2.1 μg of sample for 1 μg of Trolox | 
